The text below walks through data of PMC6151598, “Soluble Epoxide Hydrolase Inhibitory Activity of Components Isolated from Apios americana Medik” (Molecules : A Journal of Synthetic Chemistry and Natural …, 2017).

One assay concerns estrogen receptors. On the set-up: method as in PMID 23402539, PMID 26806328. The conditions noted are these: cited from earlier work.
For assay [1], the target named is T1, soluble epoxide hydrolase (sEH) (Homo sapiens, UniProt P34913).
T1 construct: purchased Cayman (Ann Arbor, MI, USA) 10011669
T1 sequence (P34913 1-555): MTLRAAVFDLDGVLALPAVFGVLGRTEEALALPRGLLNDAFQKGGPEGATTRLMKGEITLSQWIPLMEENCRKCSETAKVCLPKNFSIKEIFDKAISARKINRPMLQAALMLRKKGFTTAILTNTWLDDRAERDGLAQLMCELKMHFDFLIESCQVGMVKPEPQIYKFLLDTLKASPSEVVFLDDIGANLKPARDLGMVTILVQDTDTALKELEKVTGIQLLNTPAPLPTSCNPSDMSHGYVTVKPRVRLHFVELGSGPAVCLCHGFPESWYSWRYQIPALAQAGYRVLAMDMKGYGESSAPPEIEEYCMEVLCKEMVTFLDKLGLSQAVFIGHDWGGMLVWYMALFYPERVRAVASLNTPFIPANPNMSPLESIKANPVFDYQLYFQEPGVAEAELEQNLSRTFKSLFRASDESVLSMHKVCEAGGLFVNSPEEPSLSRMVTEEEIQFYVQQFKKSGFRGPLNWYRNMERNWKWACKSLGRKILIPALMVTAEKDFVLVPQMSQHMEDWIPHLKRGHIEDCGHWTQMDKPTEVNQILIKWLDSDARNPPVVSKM
As to the kind of experiment: sEH enzyme kinetics (Lineweaver–Burk and Dixon plots). The assay is classed as biochemical. The settings on record: for Binding mode (inhibition type): Lineweaver–Burk plot.

For assay [2], the target named is T1, soluble epoxide hydrolase (sEH). As to the kind of experiment: sEH inhibition assay (fluorometric, PHOME substrate). It counts as biochemical. The conditions noted are these: for IC50: concentrations 6.2 to 100 μM, triplicate, read-out: IC50, inhibitory activity on sEH; for Inhibitory ratio on sEH: tested at 100 μM, % of the control value. The method, then:
The sEH assay was performed as described previously. Briefly, 130 µL of sEH in 25.0 mM Bis-Tris-HCl buffer (pH 7.0) and 20.0 µL of the compounds (1–0.06 mM concentration) diluted in MeOH, were added in 96-well plate, to which 50.0 µL of 20.0 µM PHOME was added in the mixture. After initiating the enzyme reaction at 37 °C, the products by hydrolysis of the substrate were monitored at excitation and emission of 330 and 465 nm for one hour. Inhibitory activity (%) = 100 − [(C40 − C0) − (S40 − S0)/(C40 − C0)] × 100 (1) where C40 and S40 were the fluorescence of the control and inhibitor, respectively, after 40 min, S0 and C0 is the fluorescence of inhibitor and control, respectively, at 0 min.

A further assay deals with androgen receptors. More on the design: method as in PMID 23402539, PMID 26806328. The conditions noted are these: cited from earlier work.

Several values for one entry are separate records, joined by “and”; a condition that tells them apart may be missing. Identical values can stand only once.

For the molecule `O=c1c(-c2ccc(O)cc2O)coc2cc(O)cc(O)c12` [2′-hydroxygenistein], the “Binding activity with estrogen receptors” value in the assay with estrogen receptors is listed as “binding activities”.

Consider `COc1cc(O)cc2c1C(=O)C1(O)c3ccc(O)cc3OC1O2` (centres unmarked) [Compound 1, 5-methoxy-2,5,7,4′-tetrahydroxy-coumaronochromone], for which, in assay [1], the “Binding mode (inhibition type)” value was “competitive inhibitor”. The Ki in assay [1] (inhibitor 0, 25, 50 μM, substrate 3.1 to 25 μM, read-out: Ki (Dixon plot)) came to 21 µM. Moreover, in assay [2], the half-maximal inhibitory concentration (IC50) was < 50 µM and 43.2 µM; the “Inhibitory ratio on sEH” value is “over 50%”. Consider `O=c1c(-c2ccc(O)cc2)coc2cc(O)cc(O)c12` [Compound 2, genestein], for which the “Binding mode (inhibition type)” value in assay [1] is on record as “mixed inhibitor”. Besides, the “Binding activity with estrogen receptors” value in the assay with estrogen receptors is on record as “binding activities”. Consider `O=c1c(-c2ccc(O)cc2O)coc2cc(O[C@@H]3O[C@H](CO)C(O)[C@H](O)C3O)cc(O)c12` (some centres unmarked) [Compound 6, 2′-hydroxygenistein-7-O-glucoside], for which, in the assay on androgen receptors, the “Blocking of [3H]-dihydrotestosterone binding with androgen receptors” value is “blocked the binding”. As for `O=c1c(-c2ccc(O)cc2O)coc2cc(O[C@@H]3O[C@H](CO[C@@H]4O[C@H](CO)[C@@H](O)[C@H](O)[C@H]4O)[C@@H](O)[C@H](O)[C@H]3O)cc(O)c12` [Compound 7, 2′-hydroxygenistein-7-O-gentibioside], the “Blocking of [3H]-dihydrotestosterone binding with androgen receptors” value with androgen receptors is “blocked the binding”. As for `O=C(O)c1ccc(O)cc1` [Compound 8, 4-hydroxybenzoic acid], in assay [2], the half-inhibitory concentration (IC50) worked out at 69.3 ± 1.9 µM and the “Inhibitory ratio on sEH” value is “over 50%”.
